This passage reports MIC results from patent publication US20070293493A1, “OXAZOLIDINONE ANTIBIOTICS AND DERIVATIVES THEREOF” (priority 2003, published 2007).

Molecules are shown by their SMILES. Values after ≈ are worked out from the molar mass of the structure shown. Like-named read-outs stand apart in the source and are kept apart here.

Type in all cases: cell-based
The test system of assay [1] is Enterococcus faecium VRQR (vancomycin resistant, quinolone resistant). The assay can be described thus: MIC, agar dilution method, Mueller-Hinton agar with 5% defibrinated horse blood. The conditions noted are these: 35° C., 5% CO2, 24 hours. As to the method:
(§1) The following in vitro results were obtained based on an agar dilution method except for C. pneumoniae. The activity is presented as the minimum inhibitory concentration (MIC).
(§2) Streptococci and enterococci were tested on Mueller-Hinton agar supplemented with 5% defibrinated horse blood, using an approximate inoculum of 1×10^4 cfu/spot an incubation temperature of 35° C. in an atmosphere of 5% CO2 for 24 hours. The MIC was defined as the lowest concentration at which no visible bacterial growth was observed.

Assay [2] concerns Streptococcus pneumoniae IID553. The description is as above. The conditions noted are these: 35° C., 5% CO2, 24 hours. As to the method:
as §1, §2

The test system of assay [3] is Streptococcus pneumoniae PRQR (penicillin resistant, quinolone resistant). The assay is described as above. The conditions noted are these: 35° C., 5% CO2, 24 hours. The procedure: as §1, §2
The subject of assay [4] is Streptococcus pyogenes IID692. The description is as above. To be noted: 35° C., 5% CO2, 24 hours. As to the method: as §1, §2
Assay [5] has as its system Moraxella catarrhalis ATCC25238. Kind of assay: MIC, agar dilution method, Mueller-Hinton agar. The conditions noted are these: 35° C., 24 hours. The procedure: as §1
(§3) S. aureus and M. catarrhalis were tested on Mueller-Hinton agar, using an approximate inoculum of 1×10^4 cfu/spot an incubation temperature of 35° C. for 24 hours. The MIC was defined as the lowest concentration at which no visible bacterial growth was observed.
(In agar dilution, organisms are placed on agar that contains the substance at set levels.)

The test system of assay [6] is Staphylococcus aureus CR (chloramphenicol resistant). The assay can be described thus: MIC, agar dilution method, Mueller-Hinton agar. To be noted: 35° C., 24 hours. As to the method: as §1, §3
The subject of assay [7] is Staphylococcus aureus MR (methicillin resistant). The assay can be described thus: MIC, agar dilution method, Mueller-Hinton agar. The conditions noted are these: 35° C., 24 hours. The procedure:
as §1, §3

Assay [8] concerns Staphylococcus aureus Smith. The assay can be described thus: MIC, agar dilution method, Mueller-Hinton agar. The conditions noted are these: 35° C., 24 hours. As to the method: as §1, §3

As for `N[C@@H]1[C@H]2CN(c3c(F)cc(N4C[C@H](Cn5ccnn5)OC4=O)cc3F)C[C@@H]12` [example 2, 1-[5(R)-3-[4-[(1α,5α,6α)-6-Amino-3-azabicyclo[3.1.0]hexan-3-yl]-3,5-difluorophenyl]-2-oxooxazolidin-5-ylmethyl]-1,2,3-triazole], the MIC in assay [1] (read-out: MIC) came to 1 µg/mL (≈ 2.66 µM); in assay [2] (read-out: MIC) it was 0.25 µg/mL (≈ 0.664 µM); in assay [3] (read-out: MIC), 0.25 µg/mL (≈ 0.664 µM); in assay [4] (read-out: MIC) it was 0.25 µg/mL (≈ 0.664 µM); in assay [5] (read-out: MIC) it was 1 µg/mL (≈ 2.66 µM); in assay [6] (read-out: MIC), 2 µg/mL (≈ 5.31 µM). In addition, the figures for the MIC in assay [7] (read-out: MIC) and in assay [8] (read-out: MIC) were 0.25 µg/mL (≈ 0.664 µM) and 0.125 µg/mL (≈ 0.332 µM), respectively.

For `N#C[C@@H]1[C@H]2C=C(c3ccc(N4C[C@H](Cn5ccnn5)OC4=O)cc3F)C[C@@H]12` [example 8, 1-[5(R)-3-[4-[(1α,5α,6α)-6-Cyanobicyclo[3.1.0]hex-2-en-3-yl]-3-fluorophenyl]-2-oxooxazolidin-5-ylmethyl]-1,2,3-triazole], the MIC turned out to be 0.25 µg/mL (≈ 0.684 µM) in assay [1]; 0.5 µg/mL (≈ 1.37 µM) in assay [2]; 0.25 µg/mL (≈ 0.684 µM) in assay [3]; 0.125 µg/mL (≈ 0.342 µM) in assay [4]; 1 µg/mL (≈ 2.74 µM) in assay [5]; 1 µg/mL (≈ 2.74 µM) in assay [6]. Further, the MIC in assay [7] came out at 0.06 µg/mL (≈ 0.164 µM); in assay [8], 0.125 µg/mL (≈ 0.342 µM).

By MIC is commonly meant the lowest concentration found to suppress growth.
